Test results as given in the kinase profiling compilation of Christmann-Franck et al. (2016).
Values belong to the compound of their own block, whether it stands above or below them.

How the values were obtained:
Assay in all cases: Caliper, Mobility shift assay off-chip
[1] = molecular target: AKT1 (human) (UniProt P31749)
[2] = molecular target: ALK (human) (UniProt Q9UM73)
[3] = molecular target: BRSK2 (human) (UniProt Q8IWQ3)
[4] = molecular target: CDK2 CCNA2 (human) (UniProt P24941+P20248)
[5] = molecular target: CHEK1 (human) (UniProt O14757)
[6] = molecular target: CSK (human) (UniProt P41240)
[7] = molecular target: EGFR (human) (UniProt P00533)
[8] = molecular target: EPHA2 (human) (UniProt P29317)
[9] = molecular target: EPHA4 (human) (UniProt P54764)
EPHA4 (human), sequence (P54764 whole entry, looked up): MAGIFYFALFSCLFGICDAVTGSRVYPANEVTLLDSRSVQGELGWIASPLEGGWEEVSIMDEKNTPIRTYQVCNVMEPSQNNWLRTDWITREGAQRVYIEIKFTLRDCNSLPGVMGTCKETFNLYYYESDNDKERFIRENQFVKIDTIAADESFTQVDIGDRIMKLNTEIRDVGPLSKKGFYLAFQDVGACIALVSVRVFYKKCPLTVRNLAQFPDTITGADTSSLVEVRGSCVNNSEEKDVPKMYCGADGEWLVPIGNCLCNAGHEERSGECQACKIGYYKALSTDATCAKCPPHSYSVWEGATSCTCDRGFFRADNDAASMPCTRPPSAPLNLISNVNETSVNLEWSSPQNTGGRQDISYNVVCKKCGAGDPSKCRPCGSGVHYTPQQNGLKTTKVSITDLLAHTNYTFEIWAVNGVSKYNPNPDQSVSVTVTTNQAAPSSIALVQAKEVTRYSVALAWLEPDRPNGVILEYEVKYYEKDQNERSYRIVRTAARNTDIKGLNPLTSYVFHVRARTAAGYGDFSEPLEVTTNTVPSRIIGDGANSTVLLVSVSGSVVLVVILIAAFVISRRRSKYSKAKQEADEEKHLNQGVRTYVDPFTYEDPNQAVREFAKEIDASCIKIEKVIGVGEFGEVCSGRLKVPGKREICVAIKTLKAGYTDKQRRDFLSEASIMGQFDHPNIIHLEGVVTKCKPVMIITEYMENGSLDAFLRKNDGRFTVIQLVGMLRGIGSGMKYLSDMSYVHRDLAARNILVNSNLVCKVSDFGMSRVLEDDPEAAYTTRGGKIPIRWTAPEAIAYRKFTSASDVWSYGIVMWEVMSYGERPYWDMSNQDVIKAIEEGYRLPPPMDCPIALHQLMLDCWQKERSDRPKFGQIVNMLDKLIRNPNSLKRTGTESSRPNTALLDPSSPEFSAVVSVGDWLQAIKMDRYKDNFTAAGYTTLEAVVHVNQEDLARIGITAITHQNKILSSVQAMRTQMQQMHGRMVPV

[10] = molecular target: FGFR1 (human) (UniProt P11362)
[11] = molecular target: FGFR3 (human) (UniProt P22607)
[12] = molecular target: FLT3 (human) (UniProt P36888)
[13] = molecular target: IGF1R (human) (UniProt P08069)
IGF1R (human), sequence (P08069 whole entry, looked up): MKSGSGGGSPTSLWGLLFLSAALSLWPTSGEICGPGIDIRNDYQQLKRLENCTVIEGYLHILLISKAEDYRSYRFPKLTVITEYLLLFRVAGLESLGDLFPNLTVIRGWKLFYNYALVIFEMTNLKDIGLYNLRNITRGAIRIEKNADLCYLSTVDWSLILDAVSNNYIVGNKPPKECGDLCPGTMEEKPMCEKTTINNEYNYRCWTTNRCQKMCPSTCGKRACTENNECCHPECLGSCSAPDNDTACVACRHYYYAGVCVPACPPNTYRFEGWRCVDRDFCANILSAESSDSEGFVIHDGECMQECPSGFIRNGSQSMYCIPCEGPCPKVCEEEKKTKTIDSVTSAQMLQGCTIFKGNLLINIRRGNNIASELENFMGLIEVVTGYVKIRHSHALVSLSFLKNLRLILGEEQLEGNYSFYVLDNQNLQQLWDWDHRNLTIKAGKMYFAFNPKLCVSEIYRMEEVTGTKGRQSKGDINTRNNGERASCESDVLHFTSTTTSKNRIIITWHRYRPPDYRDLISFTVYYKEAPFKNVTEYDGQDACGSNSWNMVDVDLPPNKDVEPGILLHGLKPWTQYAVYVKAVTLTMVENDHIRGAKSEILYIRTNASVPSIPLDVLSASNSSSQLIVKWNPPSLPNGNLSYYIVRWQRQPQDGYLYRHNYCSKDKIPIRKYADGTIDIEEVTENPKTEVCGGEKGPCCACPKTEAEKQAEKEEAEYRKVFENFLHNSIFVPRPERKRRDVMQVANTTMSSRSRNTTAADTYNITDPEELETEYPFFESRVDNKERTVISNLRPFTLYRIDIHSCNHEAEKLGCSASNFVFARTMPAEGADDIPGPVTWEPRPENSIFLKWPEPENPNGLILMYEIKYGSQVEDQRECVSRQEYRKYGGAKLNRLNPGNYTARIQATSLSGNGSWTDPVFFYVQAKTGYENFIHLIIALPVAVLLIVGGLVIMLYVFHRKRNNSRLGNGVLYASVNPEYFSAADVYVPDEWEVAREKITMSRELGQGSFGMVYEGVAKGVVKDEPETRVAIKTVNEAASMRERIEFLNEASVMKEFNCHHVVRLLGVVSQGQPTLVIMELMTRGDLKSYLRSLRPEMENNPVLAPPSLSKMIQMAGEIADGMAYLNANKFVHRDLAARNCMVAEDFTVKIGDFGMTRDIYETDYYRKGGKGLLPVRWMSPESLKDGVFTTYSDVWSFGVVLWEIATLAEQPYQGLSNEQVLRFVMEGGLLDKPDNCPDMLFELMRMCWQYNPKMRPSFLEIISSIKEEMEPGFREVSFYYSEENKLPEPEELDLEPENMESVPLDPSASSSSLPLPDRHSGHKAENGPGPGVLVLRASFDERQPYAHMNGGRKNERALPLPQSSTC

[14] = molecular target: IKBKB (human) (UniProt O14920)
IKBKB (human), sequence (O14920 whole entry, looked up): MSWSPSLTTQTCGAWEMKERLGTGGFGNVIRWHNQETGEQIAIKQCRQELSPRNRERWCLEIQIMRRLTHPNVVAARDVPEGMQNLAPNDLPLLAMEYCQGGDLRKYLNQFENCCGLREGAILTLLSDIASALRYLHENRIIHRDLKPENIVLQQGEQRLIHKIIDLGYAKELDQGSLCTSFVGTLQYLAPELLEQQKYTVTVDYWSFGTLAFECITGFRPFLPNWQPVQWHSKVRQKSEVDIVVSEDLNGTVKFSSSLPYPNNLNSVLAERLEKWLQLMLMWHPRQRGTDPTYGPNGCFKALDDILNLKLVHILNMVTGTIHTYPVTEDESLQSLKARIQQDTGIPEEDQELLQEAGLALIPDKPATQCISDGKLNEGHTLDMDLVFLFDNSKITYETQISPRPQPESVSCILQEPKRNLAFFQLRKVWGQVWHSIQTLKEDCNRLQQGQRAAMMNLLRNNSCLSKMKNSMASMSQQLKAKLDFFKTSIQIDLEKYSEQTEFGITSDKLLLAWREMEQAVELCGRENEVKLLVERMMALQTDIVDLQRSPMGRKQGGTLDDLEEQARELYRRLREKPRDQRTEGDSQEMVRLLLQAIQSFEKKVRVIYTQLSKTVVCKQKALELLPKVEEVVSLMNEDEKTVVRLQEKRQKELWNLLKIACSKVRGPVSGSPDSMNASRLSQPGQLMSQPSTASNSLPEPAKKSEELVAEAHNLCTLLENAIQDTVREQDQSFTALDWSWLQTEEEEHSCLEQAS

[15] = molecular target: KDR (human) (UniProt P35968)
[16] = molecular target: KIT (human) (UniProt P10721)
[17] = molecular target: MAP3K7 (human) (UniProt O43318)
[18] = molecular target: MAPK11 (human) (UniProt Q15759)
[19] = molecular target: MAPK12 (human) (UniProt P53778)
MAPK12 (human), sequence (P53778 whole entry, looked up): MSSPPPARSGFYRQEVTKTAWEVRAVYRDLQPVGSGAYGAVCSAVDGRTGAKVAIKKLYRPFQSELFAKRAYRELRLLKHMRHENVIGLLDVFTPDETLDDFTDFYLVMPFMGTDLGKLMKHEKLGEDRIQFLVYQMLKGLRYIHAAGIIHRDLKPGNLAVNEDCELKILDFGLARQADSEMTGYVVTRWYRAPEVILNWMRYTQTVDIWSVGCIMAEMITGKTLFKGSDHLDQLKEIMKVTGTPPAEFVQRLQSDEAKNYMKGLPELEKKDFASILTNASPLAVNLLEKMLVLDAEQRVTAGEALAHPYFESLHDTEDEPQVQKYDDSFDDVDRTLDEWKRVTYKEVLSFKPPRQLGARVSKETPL

[20] = molecular target: MAPK13 (human) (UniProt O15264)
[21] = molecular target: MAPK8 (human) (UniProt P45983)
[22] = molecular target: MAPKAPK2 (human) (UniProt P49137)
[23] = molecular target: MAPKAPK5 (human) (UniProt Q8IW41)
[24] = molecular target: NEK2 (human) (UniProt P51955)
[25] = molecular target: NEK6 (human) (UniProt Q9HC98)
[26] = molecular target: PAK4 (human) (UniProt O96013)
[27] = molecular target: PIM1 (human) (UniProt P11309)
[28] = molecular target: PIM2 (human) (UniProt Q9P1W9)
[29] = molecular target: PLK3 (human) (UniProt Q9H4B4)
[30] = molecular target: PRKCA (human) (UniProt P17252)
[31] = molecular target: PRKCG (human) (UniProt P05129)
[32] = molecular target: PRKCI (human) (UniProt P41743)
[33] = molecular target: RAF1 (human) (UniProt P04049)
[34] = molecular target: RIPK2 (human) (UniProt O43353)
[35] = molecular target: ROCK1 (human) (UniProt Q13464)
[36] = molecular target: RPS6KA1 KD1 KD2 (human) (UniProt Q15418)
RPS6KA1 KD1 KD2 (human), sequence (Q15418 whole entry, looked up): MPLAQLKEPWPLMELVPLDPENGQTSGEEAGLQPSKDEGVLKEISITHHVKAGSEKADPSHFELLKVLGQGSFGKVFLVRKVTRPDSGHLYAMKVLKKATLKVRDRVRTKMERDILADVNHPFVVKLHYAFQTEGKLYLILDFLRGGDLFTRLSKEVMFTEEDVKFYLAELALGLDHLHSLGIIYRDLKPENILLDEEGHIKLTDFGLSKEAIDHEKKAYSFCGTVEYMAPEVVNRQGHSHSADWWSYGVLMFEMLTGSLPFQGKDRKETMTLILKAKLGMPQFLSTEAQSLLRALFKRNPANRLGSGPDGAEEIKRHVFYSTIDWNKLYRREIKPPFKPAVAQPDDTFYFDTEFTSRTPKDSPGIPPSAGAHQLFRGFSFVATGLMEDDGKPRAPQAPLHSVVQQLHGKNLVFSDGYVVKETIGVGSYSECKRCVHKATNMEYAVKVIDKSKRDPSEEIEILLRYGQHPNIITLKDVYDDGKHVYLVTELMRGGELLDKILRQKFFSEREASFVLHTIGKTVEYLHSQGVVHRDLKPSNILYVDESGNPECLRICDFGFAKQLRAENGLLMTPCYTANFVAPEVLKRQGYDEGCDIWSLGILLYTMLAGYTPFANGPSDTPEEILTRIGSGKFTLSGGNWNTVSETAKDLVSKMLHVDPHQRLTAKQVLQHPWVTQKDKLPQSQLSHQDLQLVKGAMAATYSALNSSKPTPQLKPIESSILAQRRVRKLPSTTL

[37] = molecular target: RPS6KA5 KD1 KD2 (human) (UniProt O75582)
[38] = molecular target: RPS6KB1 (human) (UniProt P23443)
[39] = molecular target: SRC (human) (UniProt P12931)
[40] = molecular target: TEK (human) (UniProt Q02763)
[41] = molecular target: ZAP70 (human) (UniProt P43403)
ZAP70 (human), sequence (P43403 whole entry, looked up): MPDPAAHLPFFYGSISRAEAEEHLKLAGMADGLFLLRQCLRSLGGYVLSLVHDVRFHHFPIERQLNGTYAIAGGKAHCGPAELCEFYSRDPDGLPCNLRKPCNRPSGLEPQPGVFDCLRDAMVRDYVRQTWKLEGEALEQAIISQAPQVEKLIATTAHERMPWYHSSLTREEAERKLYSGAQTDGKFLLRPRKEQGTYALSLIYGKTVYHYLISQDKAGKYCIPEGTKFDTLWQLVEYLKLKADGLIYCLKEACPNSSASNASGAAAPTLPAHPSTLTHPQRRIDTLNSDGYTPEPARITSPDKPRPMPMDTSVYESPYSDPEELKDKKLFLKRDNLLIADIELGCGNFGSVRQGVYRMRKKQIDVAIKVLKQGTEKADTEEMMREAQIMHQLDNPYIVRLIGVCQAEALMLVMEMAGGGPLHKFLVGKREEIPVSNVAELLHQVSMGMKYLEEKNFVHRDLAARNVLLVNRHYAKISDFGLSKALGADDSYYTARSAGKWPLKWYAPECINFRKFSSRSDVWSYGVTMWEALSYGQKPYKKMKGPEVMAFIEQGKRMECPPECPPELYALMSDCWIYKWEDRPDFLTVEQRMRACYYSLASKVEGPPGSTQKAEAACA

residual activity ([1]; compound 1.0 µM): 103%
residual activity ([2]; compound 1.0 µM): 100%
residual activity ([3]; compound 1.0 µM): 81%
residual activity ([4]; compound 1.0 µM): 99%
residual activity ([5]; compound 1.0 µM): 54%
residual activity ([6]; compound 1.0 µM): 107%
residual activity ([7]; compound 1.0 µM): 109%
residual activity ([8]; compound 1.0 µM): 127%
residual activity ([9]; compound 1.0 µM): 100%
residual activity ([10]; compound 1.0 µM): 48%
residual activity ([11]; compound 1.0 µM): 88%
residual activity ([12]; compound 1.0 µM): 9%
residual activity ([13]; compound 1.0 µM): 103%
residual activity ([14]; compound 1.0 µM): 105%
residual activity ([15]; compound 1.0 µM): 106%
residual activity ([16]; compound 1.0 µM): 100%
residual activity ([17]; compound 1.0 µM): 32%
residual activity ([18]; compound 1.0 µM): 85%
residual activity ([19]; compound 1.0 µM): 98%
residual activity ([20]; compound 1.0 µM): 115%
residual activity ([21]; compound 1.0 µM): 94%
residual activity ([22]; compound 1.0 µM): 96%
residual activity ([23]; compound 1.0 µM): 78%
residual activity ([24]; compound 1.0 µM): 93%
residual activity ([25]; compound 1.0 µM): 114%
residual activity ([26]; compound 1.0 µM): 99%
residual activity ([27]; compound 1.0 µM): 103%
residual activity ([28]; compound 1.0 µM): 91%
residual activity ([29]; compound 1.0 µM): 111%
residual activity ([30]; compound 1.0 µM): 98%
residual activity ([31]; compound 1.0 µM): 86%
residual activity ([32]; compound 1.0 µM): 121%
residual activity ([33]; compound 1.0 µM): 94%
residual activity ([34]; compound 1.0 µM): 111%
residual activity ([35]; compound 1.0 µM): 96%
residual activity ([36]; compound 1.0 µM): 83%
residual activity ([37]; compound 1.0 µM): 93%
residual activity ([38]; compound 1.0 µM): 85%
residual activity ([39]; compound 1.0 µM): 86%
residual activity ([40]; compound 1.0 µM): 95%
residual activity ([41]; compound 1.0 µM): 120%
SMILES: O=C(NCCCNc1nc(Nc2cccc(NC(=O)N3CCCC3)c2)ncc1I)c1cccs1

residual activity ([1]; compound 10.0 µM): 25%
residual activity ([2]; compound 10.0 µM): 42%
residual activity ([3]; compound 10.0 µM): 57%
residual activity ([4]; compound 10.0 µM): 118%
residual activity ([5]; compound 10.0 µM): 75%
residual activity ([6]; compound 10.0 µM): 82%
residual activity ([7]; compound 10.0 µM): 71%
residual activity ([8]; compound 10.0 µM): 95%
residual activity ([9]; compound 10.0 µM): 77%
residual activity ([10]; compound 10.0 µM): 4%
residual activity ([11]; compound 10.0 µM): 25%
residual activity ([12]; compound 10.0 µM): 8%
residual activity ([13]; compound 10.0 µM): 66%
residual activity ([14]; compound 10.0 µM): 39%
residual activity ([15]; compound 10.0 µM): 50%
residual activity ([16]; compound 10.0 µM): 71%
residual activity ([17]; compound 10.0 µM): 83%
residual activity ([18]; compound 10.0 µM): 81%
residual activity ([19]; compound 10.0 µM): 85%
residual activity ([20]; compound 10.0 µM): 43%
residual activity ([21]; compound 10.0 µM): 55%
residual activity ([22]; compound 10.0 µM): 78%
residual activity ([23]; compound 10.0 µM): 50%
residual activity ([24]; compound 10.0 µM): 80%
residual activity ([25]; compound 10.0 µM): 109%
residual activity ([26]; compound 10.0 µM): 106%
residual activity ([27]; compound 10.0 µM): 3%
residual activity ([28]; compound 10.0 µM): 24%
residual activity ([29]; compound 10.0 µM): 110%
residual activity ([30]; compound 10.0 µM): 94%
residual activity ([31]; compound 10.0 µM): 88%
residual activity ([32]; compound 10.0 µM): 107%
residual activity ([33]; compound 10.0 µM): 94%
residual activity ([34]; compound 10.0 µM): 78%
residual activity ([35]; compound 10.0 µM): 46%
residual activity ([36]; compound 10.0 µM): 13%
residual activity ([37]; compound 10.0 µM): 39%
residual activity ([38]; compound 10.0 µM): 0%
residual activity ([39]; compound 10.0 µM): 14%
residual activity ([40]; compound 10.0 µM): 5%
residual activity ([41]; compound 10.0 µM): 99%
SMILES: COc1ccc(C#Cc2ccc3ncc4ncn(-c5ccc(CCN)cc5)c4c3c2)cc1
